How the values were obtained:
[1] = tested on: human peripheral blood mononuclear cells (PBMCs); test: Induction of cytokines in human PBMCs in vitro (Luminex/Upstate multi-plex); assay type: cell-based; conditions: 24 hours; for IFN-α concentration / IFN-β concentration / IFN-γ concentration / IL1-α concentration / IL1-β concentration / IL-1ra concentration / IL-6 concentration / IL-10 concentration / IL-12 concentration / TNF-α concentration: PBMC supernatant
Method: Frozen human PBMCs were thawed and used to seed the wells of 96 well plates (7.5×10^5cells/well in 190 μL/well culture medium (CM)). The cells were incubated for 1 hour at 37° C. at a 5% CO2. […] The plates were incubated at 37° C., 5% CO2, for 24 hours, then centrifuged at 1200 rpm for 10 minutes. After centrifugation the supernatant was collected and stored at −80° C. The supernatant was assayed using Luminex and Upstate multi-plex kits for the presence of various cytokines.

interferon-alpha = test: Induction of interferon alpha in cynomolgus monkeys, single oral dose (serum ELISA); assay type: in vivo; conditions: serum at 4 and 8 hours
Method: A single dose of Compound A was administered orally to cynomolgus monkeys (3 or more animals per dose group) and serum was collected at 4 hours and 8 hours after dosing. Serum samples were analyzed for levels of interferon-alpha by ELISA. Prior to dosing, serum interferon-alpha levels were near or below the level of detection in each animal. The limit of quantitation (LOQ) for IFN-a based on cynomolgus monkey IFN-a standard was 625 pg/mL.

serum cytokines = test: Induction of serum cytokines in mice (ELISA, Luminex/Milliplex); assay type: in vivo, CD-1 mice; conditions: Day 1, 2 hours Post-dose
Method: Compound A was dosed once per day for 14 days by oral gavage, at 0.5 mg/kg or 2.5 mg/kg, in CD-1 mice. Mouse serum samples were collected on day 1 and day 14, and serum cytokine levels were determined using the following method. The assay for interferon-a was done by ELISA (VeriKine™ Mouse Interferon Alpha (Mu-IFN-a) ELISA Kit, Product Number: 42100-1, PBL Biomedical Laboratories, New Brunswick, N.J.) and the other serum cytokines were assayed with Luminex and Milliplex bead kits. Cytokine levels were determined using a nonlinear five point parameter curve for interpolation of data using the fit=(A+((B−A)/(1+(((B−E)/(E−A))*((x/C)̂D))))). The results are shown in Table 4 where the cytokine concentrations are expressed in units of pg/mL.

[2] = tested on: Woodchuck Hepatitis Virus (WHV); test: Seroconversion and antiviral activity in woodchucks chronically infected with WHV; assay type: in vivo, Eastern Woodchucks (Marmota monax); conditions: chronic WHV carrier woodchucks, oral 0.5 mg/kg/day for 28 days
Method: Compound A or placebo was administered orally to five woodchucks per group that were chronic carriers of woodchuck hepatitis virus (WHV). Compound A was administered at a dose of 0.5 mg/kg/day for 28 days. Blood samples were collected prior to dosing and multiple times during and after the 28 day dosing period. Antiviral activity of Compound A was assessed by comparing the serum WHV DNA of treated WHV carrier woodchucks with control WHV carrier woodchucks receiving vehicle. The ability of Compound A to cause seroconversion in chronically infected animals was assessed by comparing the serum antibody levels against the woodchuck hepatitis virus surface antigen (anti-WHsAg) in infected animals to the anti-WHsAg antibody levels in placebo treated animals.
The woodchucks used in this study were born to WHV-negative females and reared in environmentally controlled laboratory animal facilities. Woodchucks were inoculated at 3 days of age with 5 million woodchuck infectious doses of a standardized WHV inoculum (cWHV7P1 or WHV7P2). Woodchucks selected for use developed WHV surface antigen (WHsAg) serum antigenemia and became chronic WHV carriers. The chronic carrier status of these woodchucks was confirmed prior to initiation of drug treatment.
Serum WHV DNA concentrations were measured before treatment, during treatment, and during the post-treatment follow-up period at frequent intervals. WHV viremia in serum samples was assessed by dot blot hybridization using three replicate volumes (10 μl) of undiluted serum (sensitivity, 1.0×10^7 WHV genome equivalents per ml [WHVge/ml]) compared with a standard dilution series of WHV recombinant DNA plasmid (pWHV8).
Levels of Woodchuck Hepatitis Virus surface antigen (WHsAg) and antibodies to WHsAg (anti-WHs) were determined before treatment, during treatment, and during the post-treatment follow-up period at frequent intervals, using WHV-specific enzyme immunoassays.
Antiviral activity of Compound A was assessed by comparing the serum WHV DNA and the hepatic WHV nucleic acids of treated WHV carrier woodchucks with control WHV carrier woodchucks receiving vehicle.
Immune stimulatory activity of Compound A to cause seroconversion was assessed by comparing the serum levels of WHsAg and antibodies to WHsAg (anti-WHsAg).

Compound: CCCCOc1nc(N)c2nc(O)n(Cc3cccc(CN4CCCC4)c3)c2n1 [Compound A, 6-amino-2-butoxy-9-(3-(pyrrolidin-1-ylmethyl)benzyl)-9H-purin-8-ol]
- production of cytokines in human PBMCs in vitro ([1]; 0.1, 0.01, 0.001 μM): stimulated the production of a range of cytokines
- IFN-α concentration ([1]; Compound A 0.001 μM): 208 pg/mL
- IFN-β concentration ([1]; Compound A 0.001 μM): 324 pg/mL
- IFN-γ concentration ([1]; Compound A 0.001 μM): 2099 pg/mL
- IL1-α concentration ([1]; Compound A 0.001 μM): 7 pg/mL
- IL1-β concentration ([1]; Compound A 0.001 μM): 138 pg/mL
- IL-1ra concentration ([1]; Compound A 0.001 μM): 3216 pg/mL
- IL-6 concentration ([1]; Compound A 0.001 μM): 27664 pg/mL
- IL-10 concentration ([1]; Compound A 0.001 μM): 735 pg/mL
- IL-12 concentration ([1]; Compound A 0.001 μM): 61 pg/mL
- TNF-α concentration ([1]; Compound A 0.001 μM): 82 pg/mL
- IFN-α concentration ([1]; Compound A 0.01 μM): 122 pg/mL
- IFN-β concentration ([1]; Compound A 0.01 μM): 170 pg/mL
- IFN-γ concentration ([1]; Compound A 0.01 μM): 4578 pg/mL
- IL1-α concentration ([1]; Compound A 0.01 μM): 94 pg/mL
- IL1-β concentration ([1]; Compound A 0.01 μM): 752 pg/mL
- IL-1ra concentration ([1]; Compound A 0.01 μM): 4530 pg/mL
- IL-6 concentration ([1]; Compound A 0.01 μM): 66284 pg/mL
- IL-10 concentration ([1]; Compound A 0.01 μM): 992 pg/mL
- IL-12 concentration ([1]; Compound A 0.01 μM): 386 pg/mL
- TNF-α concentration ([1]; Compound A 0.01 μM): 1449 pg/mL
- IFN-α concentration ([1]; Compound A 0.1 μM): 80 pg/mL
- IFN-β concentration ([1]; Compound A 0.1 μM): 97 pg/mL
- IFN-γ concentration ([1]; Compound A 0.1 μM): 5400 pg/mL
- IL1-α concentration ([1]; Compound A 0.1 μM): 280 pg/mL
- IL1-β concentration ([1]; Compound A 0.1 μM): 2836 pg/mL
- IL-1ra concentration ([1]; Compound A 0.1 μM): 4934 pg/mL
- IL-6 concentration ([1]; Compound A 0.1 μM): 93554 pg/mL
- IL-10 concentration ([1]; Compound A 0.1 μM): 1523 pg/mL
- IL-12 concentration ([1]; Compound A 0.1 μM): 773 pg/mL
- TNF-α concentration ([1]; Compound A 0.1 μM): 3665 pg/mL
- Average peak serum Interferon-alpha levels (Mean ± standard deviation) (interferon-alpha; single oral dose 0.005 mg/kg): 7829 ± 9192 pg/mL
- Average peak serum Interferon-alpha levels (Mean ± standard deviation) (interferon-alpha; single oral dose 0.02 mg/kg): 26148 ± 13873 pg/mL
- Average peak serum Interferon-alpha levels (Mean ± standard deviation) (interferon-alpha; single oral dose 0.05 mg/kg): 42741 ± 29223 pg/mL
- Average peak serum Interferon-alpha levels (Mean ± standard deviation) (interferon-alpha; single oral dose 2.5 mg/kg): 772923 ± 281529 pg/mL
- Average Serum IFN-a Level ± Standard Deviation (serum cytokines; oral 0.5 mg/kg): 296.3 ± 322.4 pg/mL
- Average Serum IL1-β Level ± Standard Deviation (serum cytokines; oral 0.5 mg/kg): 4.8 ± 2.7 pg/mL
- Average Serum IL6 Level ± Standard Deviation (serum cytokines; oral 0.5 mg/kg): 257.2 ± 420.9 pg/mL
- Average Serum IL12p40 Level ± Standard Deviation (serum cytokines; oral 0.5 mg/kg): 3.2 ± 0 pg/mL
- Average Serum IL-10 Level ± Standard Deviation (serum cytokines; oral 0.5 mg/kg): 3.2 ± 0 pg/mL
- Average Serum TNF-a Level ± Standard Deviation (serum cytokines; oral 0.5 mg/kg): 41.7 ± 42.4 pg/mL
- Average Serum IFN-a Level ± Standard Deviation (serum cytokines; oral 2.5 mg/kg): 1091.8 ± 413.6 pg/mL
- Average Serum IL1-β Level ± Standard Deviation (serum cytokines; oral 2.5 mg/kg): 20.8 ± 16.1 pg/mL
- Average Serum IL6 Level ± Standard Deviation (serum cytokines; oral 2.5 mg/kg): 6710.2 ± 3657.4 pg/mL
- Average Serum IL12p40 Level ± Standard Deviation (serum cytokines; oral 2.5 mg/kg): 10 ± 11.7 pg/mL
- Average Serum IL-10 Level ± Standard Deviation (serum cytokines; oral 2.5 mg/kg): 143.4 ± 102.7 pg/mL
- Average Serum TNF-a Level ± Standard Deviation (serum cytokines; oral 2.5 mg/kg): 407.1 ± 258.1 pg/mL
- serum WHV DNA concentrations ([2]; FIG. 1): caused a substantial reduction in serum WHV DNA concentrations
- antibodies against Woodchuck Hepatitis Virus Surface Antigen (anti-WHs) ([2]; FIG. 2): stimulated production of antibodies against Woodchuck Hepatitis Virus Surface Antigen (WHsAg)
- serum levels of WHsAg ([2]; FIG. 3): caused a substantial reduction in serum levels of WHsAg
- seroconversion against WHV ([2]; FIGS. 1-3): induced seroconversion against WHV
